Data set [1] in a line: Compound stability in human liver microsomes. The conditions noted are these: pH 7.4; for half-life at 5 μM: human liver microsomes 0.5 mg protein/mL, compound 5 μM, NADPH, 37° C., read-out: Human T1/2; for CLint scaled at 5 μM: human liver microsomes, in vivo CLint extrapolated. The data set is classed as in vitro ADME. The method, boiled down:
(§1)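 LC/MS/MS read-out of parent remaining, as % of t=0, after 0, 5, 10, 15, 30 and 60 min at 37° C. Mix: microsomes 0.5 mg/mL, test compound 5 μM, NADPH 1.0 mM, phosphate pH 7.4. Denatured microsomes served as negative control. In vivo CLint extrapolated.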

A short description of data set [2]: Pharmacokinetics after intravenous and oral administration in rats. Format: in vivo. As to conditions: for Clearance (CL) after iv dosing / AUC(0-t) / half-life / Vd: dose 1 mg/kg, iv dosing; for F: oral bioavailability; for AUC(0-t) / half-life / Vd: rat, plasma; for Vd: read-out: Vss. The method, boiled down: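 Compounds dosed IV at 0.5, 1 or 2 mg/kg and orally at 0.5, 1, 5 or 10 mg/kg in rats, as solution, suspension or capsule formulations. Serial blood sampled out to 24 h and plasma stored frozen. Plasma levels quantified by LC/MS/MS in ESI MRM mode.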

Data set [3] in a line: Compound stability in rat liver microsomes. Format: in vitro ADME. The conditions noted are these: pH 7.4; for half-life at 5 μM: rat liver microsomes 0.5 mg protein/mL, compound 5 μM, NADPH, 37° C., read-out: Rat T1/2; for CLint scaled at 5 μM: rat liver microsomes, in vivo CLint extrapolated. The method, boiled down: as §1

Turning to `Cn1cc(Nc2ncc(Cl)c(N[C@@H]3COC4C3OC[C@@H]4NS(=O)(=O)CC(C)(C)C#N)n2)cn1` (stereo partly drawn) [Ex. 26, N-((3S,6R)-6-((5-chloro-2-((1-methyl-1H-pyrazol-4-yl)amino)pyrimidin-4-yl)amino)hexahydrofuro[3,2-b]furan-3-yl)-2-cyano-2-methylpropane-1-sulfonamide], in data set [1], the half-life at 5 μM is 33.6 min and the CLint scaled at 5 μM is 51.7 mL/min/kg. Further, in data set [2], the “Clearance (CL) after iv dosing” value is 37.8 mL/min/kg, the F stood at 62.7%, the AUC(0-t) turned out to be 442 ng·h/mL and the half-life was 35.4 min. Further, the Vd in data set [2] worked out at 0.75 L/kg. Moreover, in data set [3], the half-life at 5 μM is 40.9 min and the CLint scaled at 5 μM is 60.7 mL/min/kg.

As to `Cn1cc(Nc2ncc(Cl)c(N[C@@H]3COC4C3OC[C@@H]4NS(=O)(=O)CC3CC3)n2)cn1` (stereo partly drawn) [Ex. 25, N-((3S,6R)-6-((5-chloro-2-((1-methyl-1H-pyrazol-4-yl)amino)pyrimidin-4-yl)amino)hexahydrofuro[3,2-b]furan-3-yl)-1-cyclopropylmethanesulfonamide], in data set [1], the half-life at 5 μM stood at 83.4 min and the CLint scaled at 5 μM is 20.8 mL/min/kg. Moreover, in data set [2], the “Clearance (CL) after iv dosing” value was determined as 30.3 mL/min/kg, the F turned out to be 84.2%, the AUC(0-t) amounted to 547 ng·h/mL and the half-life was 18 min. Also, the Vd in data set [2] was found to be 0.83 L/kg. In data set [3], the half-life at 5 μM is 69.8 min and the CLint scaled at 5 μM was 35.6 mL/min/kg.

As to `Cn1cc(Nc2ncc(Cl)c(N[C@@H]3COC4C3OC[C@@H]4NS(=O)(=O)CC(F)(F)F)n2)cn1` (stereo partly drawn) [Ex. 27, N-((3S,6R)-6-((5-chloro-2-((1-methyl-1H-pyrazol-4-yl)amino)pyrimidin-4-yl)amino)hexahydrofuro[3,2-b]furan-3-yl)-2,2,2-trifluoroethanesulfonamide], in data set [1], the half-life at 5 μM turned out to be 190 min and the CLint scaled at 5 μM was 9.16 mL/min/kg. In addition, in data set [2], the “Clearance (CL) after iv dosing” value is 28.8 mL/min/kg, the F was 66.1%, the AUC(0-t) was 581 ng·h/mL and the half-life was 62.4 min. Also, in data set [2], the Vd worked out at 0.85 L/kg. Further, in data set [3], the half-life at 5 μM turned out to be 56.5 min and the CLint scaled at 5 μM was 44 mL/min/kg.

For the compound `CC(C)CS(=O)(=O)N[C@H]1COC2C1OC[C@H]2Nc1nc(Nc2cnn(C)c2)ncc1Cl` (stereo partly drawn) [Ex. 2, N-((3S,6R)-6-((5-chloro-2-((1-methyl-1H-pyrazol-4-yl)amino)pyrimidin-4-yl)amino)hexahydrofuro[3,2-b]furan-3-yl)-2-methylpropane-1-sulfonamide], in data set [1], the half-life at 5 μM came to 37 min and the CLint scaled at 5 μM was 47 mL/min/kg. For the same compound, in data set [2], the “Clearance (CL) after iv dosing” value was 18.3 mL/min/kg, the F was determined as 101.3%, the AUC(0-t) was determined as 908 ng·h/mL and the half-life was 69 min. Further, the Vd in data set [2] stood at 0.63 L/kg. For the same compound, in data set [3], the half-life at 5 μM was found to be 67.3 min and the CLint scaled at 5 μM is 36.9 mL/min/kg.

Values taken from patent publication US20170081338A1, “SUBSTITUTED HETEROARYL COMPOUNDS AND METHODS OF USE” (Sunshine Lake Pharma Co., Ltd., priority 2015, published 2017).
